Legend:
AAV isolate from lysate = assay: Transduction of NEM-treated AAV from producer cell lysate; type: cell-based, AAV2
HeLa cells [1] = assay: N-ethylmaleimide induced cell vesicle production time course; type: cell-based, human; conditions: 2 mM NEM in 1×DPBS; 1 h, 3 h, 5 h, 8 h, 24 h
Procedure: Protocol for N-ethylmaleimide induced cell vesicle production: HeLa cells were plated at 70% confluency (6×10^6 cells/100 mm cell culture plate) and incubated for 4 h at 37° C. and 5% CO2. Media was removed and cells were washed three times with 10 mL of 1×DPBS. […] Cells were imaged using a standard inverted light microscope and DPBS solution containing ICVs were collected, isolated, and analyzed by dynamic light scattering (DLS) for size.
Protocol for nano- and microscale induce cell vesicle isolation: Cells and debris were removed by centrifugation at 1200 rpm for 5.5 min, repeated three times, each time collecting supernatant into a clean tube. Then, mICVs were isolated from the supernatant by centrifugation at 16,000×g for 10 min. After the first spin, supernatant was collected for nICV isolation while micro ICV pellets were washed with 1×DPBS. This was repeated two additional times, discarding supernatant and washing the mICV pellet with 1×DPBS. nICVs were isolated using 100 kDa Amicon® ultrafiltration at 3300×g for 15 min, repeated three times with 1×DPBS washes. Final mICVs and nICVs collected were suspended in 100 uL 1×DPBS and then characterized.
(§1) Characterization of mICVs and nICVs: mICVs and nICVs were imaged using a bright field microscope and inverted light microscope. The sizing of produced ICVs were measured by using dynamic light scattering (DLS). […]

stock AAV = assay: Transduction of NEM-treated stock AAV; type: cell-based, AAV2
E.G7-OVA cells = assay: Tumor challenge study after vaccination; type: in vivo, C57BL/6 mice; conditions: for tumor growth: s.c. vaccination plus booster, 300,000 E.G7-OVA cells s.c.; for survival: tumor challenge
Procedure: Tumor challenge study. 12 wk.-old C57BL/6 mice (Charles River Laboratories, Wilmington, MA) were vaccinated by s.c. injection with DPBS, OVA protein, SIINFEKL peptide, SIINFEKL-presenting BDMCs, or SIINFEKL-presenting BMDC mICVs. With the exception of the control (DPBS) group, each group received vaccinations that were equivalent to a dosage of 100 μL of 50 μM SIINFEKL as quantified by CPRG assay. Vaccinations were given twice 14 days apart. 7 days after the second injection, mice were injected s.c. with 300,000 E.G7-OVA cells in the right flank. Tumor growth was monitored by measuring the tumor size with calipers every 48 h.
Mice received a single vaccination followed by a booster vaccination two weeks later). Seven days after completion of a vaccination schedule. mice were challenged with E.G7-OVA cells and tumor growth was assessed over four weeks. FIG. 72 provides images from Day 30 of the tumor challenge with mice by vaccine category. […] The foregoing tumor challenge result indicates promise for use of antigenic ICVs as effective cancer vaccines.

HeLa cells [2] = assay: AlPcS2A photoinitiated induced cell vesicle production (670 nm laser); type: cell-based, human; conditions: 1 ug/mL for 24 h then light, vs light alone
Procedure: Protocol for Photoinitiated induced cell vesicle production: HeLa cells were plated at 70% confluency (6×10^6 cells/100 mm cell culture plate) and incubated for 4 h at 37° C. and 5% CO2. Cells were then imaged to confirm adherence to the plate and, in the dark, media was changed to media containing 1 ug/mL of the photosensitizer aluminum disulfonated phthalocyanine (AlPcS2A) (10 mL of photosensitizer media per 100 mm each plate). Plates were wrapped in tinfoil and allowed to incubate for 24 h at 37° C. and 5% CO2. In the dark, the photosensitive media was removed and cells were washed three times with 10 mL of 1×DPBS. Then, 6 mL of 1×DPBS was added to each 100 mm plate and the plates were subjected to a 670 nm laser for varying time doses (10 min, 5 min, 2.5 min, 1.25 min). Cells were imaged using a standard inverted light microscope, and the DPBS solution containing ICVs was collected. 6 mL of fresh 1×DPBS was added to each 100 mm plate and the plates were incubated at 37° C. and 5% CO2 for 18 h to investigate ICV formation effects over time. Cells were imaged using a standard inverted light microscope and the DPBS solution containing ICVs was collected. […]
as §1

Compound: CCN1C(=O)C=CC1=O [NEM, N-ethylmaleimide]
- transduction of AAV isolate from lysate (AAV isolate from lysate; NEM exposure 8 hours vs 0-minute timepoint): about half the transduction
- transduction of AAV isolate from lysate (AAV isolate from lysate; NEM exposure up to 4 hours): only a minimal drop in transduction
- formation of nICVs (HeLa cells [1]): induced the formation of nICVs at each time point
- stock AAV transduction efficiency (stock AAV; NEM incubation 10 minutes): reducing the transduction efficiency
- stock AAV transduction (stock AAV; NEM incubation 2 hours): almost no transduction

Compound: OVA: OVA protein vaccination control
- tumor growth (E.G7-OVA cells): rapidly developed tumors
- survival (E.G7-OVA cells): died prior to day 35

Compound: SIINFEKL [antigen peptide vaccination control]
- tumor growth (E.G7-OVA cells): rapidly developed tumors
- survival (E.G7-OVA cells): died prior to day 35

Compound: aluminum disulfonated phthalocyanine [AlPcS2A]
- yield of nICVs and mICVs (HeLa cells [2]): greatly increased the yield of nICVs and mICVs
